Source: patent publication US20260167621A1, “Three Cluster Galactose Type Compound, Conjugate, Making Method and Use Thereof” (GUANGZHOU RIBOBIO CO., LTD., priority 2023, published 2026)

Assays:
[1] = molecular target: T1, Hepatocyte ASGPR receptor (Homo sapiens, UniProt P07306); assay: Binding affinity test with hepatocyte ASGPR receptor (Cy5 flow cytometry, binding saturation curve)
T1 construct: endogenous in cells
T1 sequence (P07306 1-291): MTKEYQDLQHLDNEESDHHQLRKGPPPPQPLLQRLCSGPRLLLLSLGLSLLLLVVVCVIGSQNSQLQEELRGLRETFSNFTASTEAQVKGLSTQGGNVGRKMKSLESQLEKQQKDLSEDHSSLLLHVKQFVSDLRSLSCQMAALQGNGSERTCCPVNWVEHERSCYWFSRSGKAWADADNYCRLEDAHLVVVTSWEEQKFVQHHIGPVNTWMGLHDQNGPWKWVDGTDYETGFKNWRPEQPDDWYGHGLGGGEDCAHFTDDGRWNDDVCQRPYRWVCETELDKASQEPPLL
T1 sequence (P07307 1-311 partner): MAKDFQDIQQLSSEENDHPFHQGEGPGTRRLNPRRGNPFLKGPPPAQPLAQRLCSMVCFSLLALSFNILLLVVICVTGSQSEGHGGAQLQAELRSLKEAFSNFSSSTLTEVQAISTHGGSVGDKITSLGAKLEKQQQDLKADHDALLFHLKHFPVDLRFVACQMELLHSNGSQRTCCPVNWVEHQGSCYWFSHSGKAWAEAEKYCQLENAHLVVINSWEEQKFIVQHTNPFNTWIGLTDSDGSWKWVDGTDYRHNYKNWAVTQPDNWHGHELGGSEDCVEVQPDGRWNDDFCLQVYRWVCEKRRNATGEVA
Protocol: Embodiment 1: Binding Affinity Test with Hepatocyte ASGPR Receptor
The compound G1, G4, G5 obtained from the examples 1, 4, 5, bound to the above mentioned siRNA respectively to form conjugates which were shown in Table 1.
G1-12, G4-12, G5-12 (1 uM) were diluted respectively in a gradient according to the following Table 2.
The cell concentration was diluted by DMEM culture medium with 2% FBS to 4*10^5 cells/mL.
200 μL cells of each sample and 200 μL siRNA were mixed uniformly, 200 μL cells of the blank control group and 200 μL culture medium were mixed uniformly, and were added in 3 wells of 96-well plate with U-shaped bottom, 100 μL each well. Samples of each concentration of all siRNA were placed in the ice box after sampling, and were placed in decolorization shaker and incubated in dark for 2 hours.
50 g of 96-well plate with U-shaped bottom was centrifuged for 2 minutes at 4° C. 80 μL supernatant was aspirated and discarded by pipette, 10 μg/mL propidium iodide was prepared by using of PBS with 2% FBS, 100 μL PI reagent was added in each well and was stained for 15 minutes. After staining, 50 g of 96-well plate with U-shaped bottom was centrifuged for 2 minutes at 4° C. After washed by PBS with 2% FBS for twice, 100 μL PBS with 2% FBS was added for resuspension, flow cytometer was used to test and count the average Cy5 fluorescence intensity of live cell population.

[2] = In vivo hepatic targeting of GalNac-siRNA (siRNA concentration of hepatic tissue by qPCR); design: species or system Balb/c-nu mice; details: 100 mg/kg, tail vein injection once, livers 6 hours after administration; compared with negative control siRNA not linked to GalNAc
Protocol: Balb/c-nu mice, male, body weight ranged 18-22 g, were randomly divided into 3 groups, 5 mice/group, which respectively were blank control group, negative control group and targeting group, the administration dose was 100 mg/kg. The negative control group was administered by tail vein injection of negative control test substance (NC, Ribobio, siM200922112438) once, the targeting group was administered by tail vein injection of the obtained G1-12 test substance of example 6 once, the blank control group was administered an equal volume of saline. All animals' livers were immediately placed in liquid nitrogen after 6 hours of administration, then were saved at −80° C., the siRNA pharmaceutical concentration of hepatic tissue was tested by qPCR method. • 1. Drawing the standard curve. […] The average Ct values of each standard points were calculated based on the obtained Ct values, the log value of standard point concentration was abscissa, the obtained average Ct value was ordinate, the standard curve was drawn, the regression equation and R^2 were calculated, R^2>0.99. • 2. […] The mice liver samples were ground to powder by liquid nitrogen grinding method, and the weight of powder was measured. […] The sample Ct values were substituted into the regression equation of the standard curve, the siRNA content of samples was calculated.

G1-12: G1 bound to 5' end of SEQ ID NO: 1, paired with 5'-Cy5 SEQ ID NO: 2; structure Z1 (sense GUAUGUUGCCCGUUUGUCC; antisense GGACAAACGGGCAACAUACCU; G1 ligand 5'; Cy5 label; modified_base join(1,5,8,12,16) OTHER; deoxyribonucleotide modification; modified_base 3 OTHER; thiophosphorylated skeleton modification and deoxyribonucleotide modification; modified_base join(4,6,7,9,10,11,13,14,15,17) OTHER; 2'-fluoro modification; modified_base join(2,18,19) OTHER; thiophosphorylated skeleton modification and 2'-fluoro modification; modified_base join(1,5,7,9,11,13,15,17) OTHER; 2'-O-methyl modification; modified_base join(3,19,20,21) OTHER; thiophosphorylated skeleton modification and 2'-O-methyl modification; modified_base join(2,4) OTHER; …) [Compound G1-12]
Bmax ([1]; average Cy5 fluorescence intensity of live cells minus blank, one site binding (hyperbola) fit, 0.9-100 nM, 2 hours on ice): 153854
Kd ([1]; one site binding (hyperbola) fit of Cy5 fluorescence, 0.9-100 nM, 2 hours on ice, read-out: Kd (dissociation equilibrium constant)): 1.98 nM
binding affinity with ASGPR receptor ([1]; statement in words from Table 3): reach a higher level
distribution in mice liver (siRNA content of hepatic tissue) [2]: obviously increased
